US20140255358A1, “GENERATION OF IMMUNOSUPPRESSIVE MYELOID CELLS USING PGE2” (priority 2011, published 2014)

Experiments:
Assay type in all cases: cell-based, human
[1] = tested on: monocytes isolated from healthy blood donors; assay: Induction of COX2 and suppressive factors in short-term cultured monocytes (FIG. 1)
Description: FIG. 1. The induction of endogenous COX2 and MDSC-associated suppressive factors in monocytes by PGE2. (A) Expression of COX2 mRNA (A, left) and protein (A, right) levels in monocytes isolated from healthy blood donors is induced by synthetic PGE2. Regulation of COX1 and COX2 expression by synthetic PGE2 was analyzed after 6-10 h. […] All data (panels A-B) were confirmed in at least 3 independent experiments. Bar graphs present data of a single representative experiment with different donors as mean±s.d. P<0.05 marked *; P<0.01 marked **; P<0.001 marked ***.

[2] = tested on: differentiating monocytes; assay: Six-day GM-CSF and IL-4-supplemented cultures of differentiating monocytes: phenotype, suppressive factors, CD8+ T cell suppression (FIG. 2)
Text: PGE2 acts on four subtypes of G protein-coupled receptors designated EP1, EP2, EP3, and EP4, among which EP2 and EP4 signaling is coupled to rise in cAMP concentration.
FIG. 2. PGE2 redirects DC differentiation and induces CD14^+CD33^+CD34^+ cells with the phenotype and function similar to monocytic MDSCs. (A) Phenotype of PGE2-induced CD1a^−CD14^+CD80^−CD83^− suppressive cells expressing inhibitory molecules ILT2, ILT3, ILT4, PDL-1, but not PDL-2. PGE2-induced suppressive cells express E-prostanoid receptors (labeled with α-EP1-, α-EP3- sec.Alexa488 and α-EP2-, α-EP4-PE). […] (bottom) Expression of immunosuppressive factors IL10, IDO1, IL4Rα and COX2 in PGE2-induced suppressive cells. (C) Immunosuppressive effects of PGE2-induced suppressive cells on allogeneic naïve CFSE-labeled CD8^+ T cells primed by CD3/CD28 and stained for granzyme B. Left panel: Percentages indicate the fraction of proliferating granzyme B^+ (marker of CTL status) CD8^+ cells. Right panel: Percentage of proliferating CD8^+ T cells in the presence of PGE2-induced suppressive cells (PGE2-d0) and PGE2-conditioned DCs (PGE2-d6). All data (panels A-C) were confirmed in at least 3 independent experiments. Bar graphs present data of a single representative experiment with different donors as mean±s.d. P<0.05 marked *; P<0.01 marked **; P<0.001 marked ***.

[3] = tested on: myeloid suppressive cells; assay: Induction of immunosuppressive factor mRNA by PGE2 and EP agonists (FIG. 3)
Text: FIG. 3. PGE2, EP4 and EP2 agonists mediate enhanced development of MDSCs. […] All data were confirmed in 3-7 independent experiments. Bar graphs present data of a single representative experiment with different donors as mean±s.d.

[4] = tested on: PGE2-induced myeloid suppressive cells; assay: Dose-dependent induction of immunosuppressive factors with or without IL-4 (FIG. 4); conditions: presence or absence of IL-4
Text: FIG. 4 Minimal requirement for high doses of PGE2 in the functional induction of myeloid suppressive cells, regardless of the presence or absence of IL-4. (A) Dose-dependent expression of immunosuppressive factors IL10, IDO1, IL4Rα and COX2 in PGE2-induced suppressive cells, generated in the presence or absence of IL-4. Histograms present data of a single representative experiment with different donors as mean±s.d.

suppressive cells = assay: Yield of ex vivo generated cells (FIG. 5); conditions: N=12 donors, mean
Text: Yield of PGE2-induced myeloid suppressive cells was similar as the yield of iDCs and TNF-a matured DCs (FIG. 5). FIG. 5. PGE2 allows for ex vivo generation of high numbers of suppressive cells. […] Histograms present data of individual experiments (N=12) with different donors as mean±s.d.

What does the source list for `CCCCC[C@H](O)/C=C/[C@H]1[C@H](O)CC(=O)[C@@H]1C/C=C\CCCC(=O)O` [PGE2, (5Z,11 alpha,13E,15S)-11,15-dihydroxy-9-oxoprosta-5,13-dien-1-oic acid]?
expression of additional immunosuppressive factors IDO1, NOS2, IL-10, IL4Rα [1]: induced the expression; expression of endogenous COX2 ([1]; analyzed after 6-10 h): start expressing endogenous COX2; induction of CD1a+CD14- DCs ([2]; added to GM-CSF and IL-4-supplemented cultures of differentiating monocytes): abolished the induction of CD1a^+CD14^− DCs; CTL-suppressive function ([2]; added to GM-CSF/IL-4-supplemented monocyte cultures): sufficient to induce the CTL-suppressive function; IL-10 production ([2]; after 6 days of culture): 261 pg/mL; induction of immunosuppressive factors arginase, IDO1, NOS2, IL-4Rα, IL10 and COX2 mRNA [3]: Induction of immunosuppressive factors; induction of IL4Rα [4]: less pronounced, but also significant; production of IL-10, ARG-1, NOS2 and IDO1 [4]: dose-dependently induced; yield of cells (suppressive cells): 48.6%

TNF-α was tested. Which yield of cells (suppressive cells) did it give?
The yield of cells was 36.9%.

For `O=C1CC[C@H](/C=C/[C@@H](O)Cc2ccccc2)N1CCCCCCc1nn[nH]n1` [CAY10598], which “induction of immunosuppressive factors arginase, IDO1, NOS2, IL-4Rα, IL10 and COX2 mRNA” value [3] is on record?
The value was “induced high levels”.

For `CCCC1([C@H](O)C/C=C/[C@H]2[C@H](O)CC(=O)[C@@H]2CCCCCCC(=O)OC)CCC1` [Butaprost], which “induction of immunosuppressive factors arginase, IDO1, NOS2, IL-4Rα, IL10 and COX2 mRNA” value [3] is on record?
The value was “induced high levels”.
